According to US20260285853A1, “COMPOUNDS AND METHODS FOR MODULATING SPLICING” (REMIX THERAPEUTICS INC., priority 2023, published 2026):
Read-outs that look alike come from different tables or passages of the source.

Key:
Format in all cases: cell-based
[1] = test system: MYB mRNA; test: Gene panel canonical junction qPCR assay, decrease in CJ mRNA, Table 3
Outline: (§1)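 A673 (DMEM, 10% FBS, 15,000 cells/well) or K562 (IMDM, 10% FBS) cells treated 24 h at 37 °C with 11-point 3-fold dilutions, top 10 uM, DMSO ≤0.25%. Canonical exon-exon junction mRNA measured by RT-qPCR, normalized to GAPDH, GUSB or PPIA and DMSO (ΔΔCt); IC50 from 4-parameter logistic fit.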

[2] = test system: HTT mRNA; test: as above
Outline: as §1

[3] = test system: SH-SY5Y (human neuroblastoma) cells; test: Cell viability, Cell Titer Glo 2.0 assay; settings: read-out: Viability SHSY5Y.3 GI50
Outline: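 Toxicity screen in SH-SY5Y cells. Compounds were serially diluted in DMSO and then in medium, giving 0.1% DMSO final. Viability was read with CellTiter-Glo 2.0 after 72 h at 37 °C, 5% CO2, against medium-only blank wells.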

[4] = test system: MYB mRNA; test: Splicing RT-qPCR assay (THP), Table 2A
[5] = test system: HTT mRNA; test: Splicing RT-qPCR assay (THP), Table 2A
[6] = decrease in CJ mRNA levels, canonical junction qPCR, gene panel
[7] = Table 2A, THP, MYB alternative junction (AJ) mRNA, read-out: MYB AJ (AC50, increase in alternative junction mRNA)
[8] = Table 2A, THP, MYB canonical junction (CJ) mRNA, read-out: MYB CJ (IC50, decrease in canonical junction mRNA)
[9] = Table 2A, THP, HTT alternative junction (AJ) mRNA, read-out: HTT AJ (AC50, increase in alternative junction mRNA)
[10] = Table 2A, THP, HTT canonical junction (CJ) mRNA, read-out: HTT CJ (IC50, decrease in canonical junction mRNA)
[11] = decrease in canonical junction (CJ) mRNA, gene panel qPCR, Table 3
[12] = Table 2A (THP), AJ mRNA increase, read-out: MYB AJ (increase in alternative junction mRNA, AC50)
[13] = Table 2A (THP), CJ mRNA decrease, read-out: MYB CJ (decrease in canonical junction mRNA, IC50)
[14] = Table 2A (THP), AJ mRNA increase, read-out: HTT AJ (increase in alternative junction mRNA, AC50)
[15] = Table 2A (THP), CJ mRNA decrease, read-out: HTT CJ (decrease in canonical junction mRNA, IC50)

SMILES | IC50 [1, 6] | IC50 [2, 6] | GI50 [3] | IC50 [4, 8] | IC50 [5, 10] | IC50 [1, 11] | IC50 [2, 11] | IC50 [4, 13] | IC50 [5, 15] | AC50 [4, 7] | AC50 [5, 9] | AC50 [4, 12] | AC50 [5, 14]
COc1nc2c(C(=O)Nc3ccc4nn(C)cc4c3OC)ccc(N3C[C@H](C)N[C@@H](C)C3)c2s1 [Compound 729, 7-[(3S,5S)-3,5-dimethylpiperazin-1-yl]-2-methoxy-N-(4-methoxy-2-methyl-indazol-5-yl)-1,3-benzothiazole-4-carboxamide] | > 10000 nM | 1 to 10 µM | 1000 to 10000 nM | > 10000 nM | 1 to 10 µM |  |  |  |  | > 10000 nM | > 10 µM |  | 
COc1nc2c(N3C[C@H](C)N[C@@H](C)C3)ccc(C(=O)Nc3cc(F)c4nn(C)cc4c3)c2o1 [Compound 691, 4-[(3S,5S)-3,5-dimethylpiperazin-1-yl]-N-(7-fluoro-2-methyl-indazol-5-yl)-2-methoxy-1,3-benzoxazole-7-carboxamide] | 100 to 1000 nM | > 10 µM | 1000 to 10000 nM | 100 to 1000 nM | > 10 µM |  |  |  |  | 100 to 1000 nM | > 10 µM |  | 
Cc1cn2cc(NC(=O)c3ccc(N4CCC(NCC5CC5)CC4)c4cn(C)nc34)nc2c(C)n1 [Compound 575] |  |  | 1000 to 10000 nM |  |  | 1000 to 10000 nM | > 10 µM | 1000 to 10000 nM | > 10 µM |  |  | 100 to 1000 nM | > 10 µM
Cc1cn2cc(NC(=O)c3c(F)cc(N4CCC(NC5CC5)CC4)c4cn(C)nc34)c(F)c2c(C)n1 [Compound 453, 4-[4-(cyclopropylamino)-1-piperidyl]-6-fluoro-N-(8-fluoro-1,3-dimethyl-pyrrolo[1,2-a]pyrazin-7-yl)-2-methyl-indazole-7-carboxamide] |  |  | 1000 to 10000 nM |  |  | 100 to 1000 nM | > 10 µM | 100 to 1000 nM | > 10 µM |  |  | < 100 nM | > 10 µM
CC(c1cc(NC(=O)c2ccc(N3CCC(NC4CC4)CC3)c3cn(C)nc23)cc2cn(C)nc12)S(=O)(=O)N(C)C (stereo not shown) [Compound 868] | > 10000 nM | > 10 µM | 1000 to 10000 nM | > 10000 nM | > 10 µM |  |  |  |  | > 10000 nM | > 10 µM |  | 
CCNC1CCN(c2ccc(C(=O)Nc3nc4c(C)nc(C)cc4n3C)c3nn(C)cc23)CC1 [Compound 583, 4-[4-(ethylamino)-1-piperidyl]-2-methyl-N-(1,4,6-trimethyl-imidazo[4,5-c]pyridin-2-y1)-indazole-7-carboxamide] |  |  | > 10000 nM |  |  | > 10000 nM | 1 to 10 µM | > 10000 nM | 1 to 10 µM |  |  | > 10000 nM | 1 to 10 µM
Cn1cc2cc(NC(=O)c3ccc(N4CCC(NC5CC5)CC4)c4cn(C)nc34)cc(CNC3(C)COC3)c2n1 [Compound 834] | > 10000 nM | > 10 µM | > 10000 nM | > 10000 nM | > 10 µM |  |  |  |  | > 10000 nM | > 10 µM |  | 

Now from value to molecule, other results behind:

IC50 [1, 6] | IC50 [2, 6] | GI50 [3] | IC50 [4, 8] | IC50 [5, 10] | IC50 [1, 11] | IC50 [2, 11] | IC50 [4, 13] | IC50 [5, 15] | SMILES | AC50 [4, 7] | AC50 [5, 9] | AC50 [4, 12] | AC50 [5, 14]
100 to 1000 nM | 1 to 10 µM | 1000 to 10000 nM | 100 to 1000 nM | 1 to 10 µM |  |  |  |  | COc1cc2nn(C)cc2cc1NC(=O)c1ccc(N2CCC(NC3CC3)CC2)n2cc(C)nc12 [Compound 618, 5-[4-(cyclopropylamino)-1-piperidyl]-N-(6-methoxy-2-methyl-indazol-5-yl)-2-methyl-imidazo[1,2-a]-pyridine-8-carboxamide] | < 100 nM | 1 to 10 µM |  | 
> 10000 nM | > 10 µM | 1000 to 10000 nM | > 10000 nM | > 10 µM |  |  |  |  | Cc1cn2cc(NC(=O)c3ccc(N4CCC(NC5CC5)CC4)c4cn(C)nc34)nc2c(Cn2ccc(=O)[nH]c2=O)n1 [Compound 733, 4-(4-(cyclopropylamino)piperidin-1-yl)-N-(8-((2,4-dioxo-3,4-dihydropyrimidin-1(2H)-yl)methyl)-6-methylimidazo[1,2-a]pyrazin-2-yl)-2-methyl-2H-indazole-7-carboxamide 2,2,2-trifluoroacetate] | > 10000 nM | > 10 µM |  | 
 |  | 1000 to 10000 nM |  |  | > 10000 nM | > 10 µM | > 10000 nM | > 10 µM | Cc1cn2cc(NC(=O)c3c(C4CC4)cc(N4CCC(NC5CC5)CC4)c4cn(C)nc34)nc2c(C)n1 [Compound 474, 6-cyclopropyl-4-[4-(cyclopropylamino)-1-piperidyl]-N-(6,8-dimethyl-imidazo[1,2-a]-pyrazin-2-yl)-2-methyl-indazole-7-carboxamide] |  |  | > 10000 nM | > 10 µM
< 100 nM | 0.1 to 1 µM | < 100 nM | < 100 nM | 0.1 to 1 µM |  |  |  |  | COc1nc2c(C(=O)Nc3ccc4nn(C)cc4c3F)ccc(N3C[C@H](C)N[C@@H](C)C3)c2s1 [Compound 727, 7-((3S,5S)-3,5-dimethylpiperazin-1-yl)-N-(4-fluoro-2-methyl-2H-indazol-5-yl)-2-methoxybenzo[d]thiazole-4-carboxamide 2,2,2-trifluoroacetate] | < 100 nM | 0.1 to 1 µM |  | 
 |  | 1000 to 10000 nM |  |  | > 10000 nM | > 10 µM | > 10000 nM | > 10 µM | Cn1cc2c(N3CCC(NC4CC4)CC3)cc(F)c(C(=O)Nc3ccc4c(c3)B(O)OC4)c2n1 [Compound 482, 4-[4-(cyclopropyl-amino)-1-piperidy1]-6-fluoro-N-(1-hydroxy-3H-2,1-benzoxaborol-6-y1)-2-methyl-indazole-7-carboxamide 2,2,2-trifluoroacetate] |  |  | > 10000 nM | > 10 µM
< 100 nM | 0.1 to 1 µM | 100 to 1000 nM | < 100 nM | 0.1 to 1 µM |  |  |  |  | COCCOCc1cc2c(N3CCC(NC4CC4)CC3)ccc(C(=O)Nc3cc(F)c4nc(C)cn4c3)n2n1 [Compound 629, 4-[4-(cyclopropylamino)-1-piperidyl]-N-(8-fluoro-2-methyl-imidazo[1,2-a]-pyridin-6-y1)-2-(2-methoxyethoxy-methyl)-pyrazolo[1,5-a]pyridine-7-carboxamide] | < 100 nM | 1 to 10 µM |  | 
 |  | 1000 to 10000 nM |  |  | 1000 to 10000 nM | > 10 µM | 1000 to 10000 nM | > 10 µM | CCNC1CCN(c2ccc(C(=O)Nc3cc(OCc4ccccc4)c4nc(C)cn4c3)c3nn(C)cc23)CC1 [Compound 324, N-(8-benzyloxy-2-methylimidazo[1,2-a]pyridin-6-yl)-4-[4-(ethylamino)-1-piperidyl]-2-methyl-indazole-7-carboxamide] |  |  | 100 to 1000 nM | > 10 µM
 |  | 1000 to 10000 nM |  |  | 1000 to 10000 nM | 1 to 10 µM | 1000 to 10000 nM | 1 to 10 µM | CCNC1CCN(c2ccc(C(=O)Nc3cn4cc(C)nc(CC)c4n3)c3nn(C)cc23)CC1 [Compound 358, 4-[4-(ethylamino)-1-piperidy1]-N-(8-ethyl-6-methyl-imidazo[1,2-a]-pyrazin-2-yl)-2-methyl-indazole-7-carboxamide] |  |  | 100 to 1000 nM | 1 to 10 µM
< 100 nM | 1 to 10 µM | < 100 nM | < 100 nM | 1 to 10 µM |  |  |  |  | COc1nc2c(C(=O)Nc3cc(F)c4nc(C)nn4c3)ccc(N3C[C@H](C)N[C@@H](C)C3)c2s1 [Compound 763, 7-[(3S,5S)-3,5-dimethylpiperazin-1-yl]-N-(8-fluoro-2-methyl-[1,2,4]triazolo[1,5-a]pyridin-6-yl)-2-methoxy-1,3-benzothiazole-4-carboxamide] | < 100 nM | 0.1 to 1 µM |  | 
